# Legend:
# mSTING = mSTING (Mus musculus, UniProt Q3TBT3); assay: Radiometric filtration binding competition assay, mSTING
# hSTING-WT = hSTING-WT (Homo sapiens (Human), UniProt Q86WV6, H232R); assay: Radiometric filtration binding competition assay, hSTING-WT
# hSTING-R232 = hSTING-R232 (Homo sapiens (Human), UniProt Q86WV6, H232R); assay: STING differential scanning fluorimetry (DSF) assay, WT human STING; conditions: WT (R232) human STING aa140-379, net shift in melting temperature
# STING protein = STING protein (Homo sapiens (Human), UniProt Q86WV6, H232R); assay: Cell based reporter assay of IRF activation (IRF-luciferase), THP1-dual-KI R232; conditions: read-out: THP1-dual-KI R232_IRF(Luciferase)_Activity Maximum measured (%)
# Chain of STING protein (Q86WV6 whole entry H232R): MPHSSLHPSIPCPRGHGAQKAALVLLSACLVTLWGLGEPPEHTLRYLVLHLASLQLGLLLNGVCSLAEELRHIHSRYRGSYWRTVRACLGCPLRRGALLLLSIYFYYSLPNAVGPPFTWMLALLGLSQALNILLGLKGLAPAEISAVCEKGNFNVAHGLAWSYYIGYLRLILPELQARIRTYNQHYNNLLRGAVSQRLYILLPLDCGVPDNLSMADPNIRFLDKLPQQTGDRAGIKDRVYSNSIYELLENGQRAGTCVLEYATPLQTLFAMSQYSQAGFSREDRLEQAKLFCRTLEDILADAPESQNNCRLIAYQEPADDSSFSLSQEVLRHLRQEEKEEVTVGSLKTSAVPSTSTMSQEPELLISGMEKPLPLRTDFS
# Source text: Briefly, THP-1 monocytes were transfected and selected for stable integration of 2 reporter constructs. Clones incorporating stably integrated vectors were further selected by antibiotic resistance to blastocidin and zeocin. The reporter constructs included: (1) firefly luciferase reporter gene under the control of an ISG54 promoter fused to five interferon (IFN)-stimulated response elements to measure IRF transcription factor binding activity and (2) secreted embryonic alkaline phosphatase reporter gene under transcription control of an IFN-beta minimal promoter fused to 5 copies of the NFkB consensus transcriptional response element and 3 copies of the c-Rel binding site.
# The resulting THP-1 cell line was further modified to incorporate 3 amino acid point mutations (H71R A230G Q293R). This modification of the native TMEM173 gene in THP-1 cells (HAQ) was designed to produce a cell reporter that expressed the most common allelic variant in the human population (THP-1 R232, available from InvivoGen). Alternatively, the TMEM173 gene was knocked out to provide a congenic control to counter-screen for compound activation that was independent of the STING protein (THP-1 STING KO).
# Once cell lines were established, reporter assay protocols were developed and optimized to screen small molecule compounds for agonist activity. Assay optimization for efficacy and Z′ value included titration of the following parameters:
# • 1. Cell pre-activation with PMA • 2. Cell seeding density • 3. DMSO tolerance • 4. Media selection • 5. FBS concentration • 6. Incubation time • 7. Co-Assessment of cell viability by CTG assay • 8. Appropriate HPE and ZPE controls • 9. Dose Response Titration Final Assay SOP Conditions • 1. No pre-activation with PMA • 2. 5×10^4 cells/well in 96 well plate format • 3. <0.5% DMSO • 4. […] 10% FBS • 6. 14-18 hr incubation • 7. Cell Titer Glo reagent (Promega) following supernatant removal • 8.
# Chain of hSTING-R232 (Q86WV6 140-379 H232R): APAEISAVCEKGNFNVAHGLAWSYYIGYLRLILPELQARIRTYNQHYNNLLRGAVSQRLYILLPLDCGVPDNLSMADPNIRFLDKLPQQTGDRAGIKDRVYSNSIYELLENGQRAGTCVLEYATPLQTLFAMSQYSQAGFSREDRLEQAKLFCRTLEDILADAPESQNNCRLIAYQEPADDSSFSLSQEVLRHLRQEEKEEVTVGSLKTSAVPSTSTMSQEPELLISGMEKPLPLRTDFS
# Chain of hSTING-WT (Q86WV6 140-379 H232R): as above
SMILES,IC50 (mSTING),IC50 (hSTING-WT),WT_DSF_hSWAT Tm Shift (° C.) (hSTING-R232),Emax (STING protein)
C[C@H](O)COc1c(Cl)ccc2c(=O)c3ccccc3n(CC(=O)O)c12 [Compound 302],> 300 µM,> 300 µM,A (“A” < 0° C.),< 5%
COc1c(Cl)ccc2c(=O)c3ccc(C(C)C)cc3n(CC(=O)NS(=O)(=O)C(F)(F)F)c12 [Compound 261],20 to 100 µM,20 to 100 µM,"C (“C” = 2-7° C,)",< 5%
COc1c(Cl)ccc2c(=O)c3ccc(Nc4ccccc4OC(F)(F)F)cc3n(CC(=O)O)c12 [Compound 286],< 20 µM,< 20 µM,D (“D” > 7° C.),> 50%
O=C(O)Cn1c2ccccc2c(=O)c2ccc(Cl)c(-c3cccnc3)c21 [Compound 334],,> 300 µM,"C (“C” = 2-7° C,)",< 5%
COc1c(Cl)ccc2c(=O)c3ccc(-c4ccncc4)cc3n(CC(=O)O)c12 [Compound 278],,20 to 100 µM,D (“D” > 7° C.),> 50%
CCSc1c(Cl)ccc2c(=O)c3ccc(C)cc3n(CC(=O)O)c12 [Compound 304],< 20 µM,20 to 100 µM,D (“D” > 7° C.),> 50%
CSc1c(Cl)ccc2c(=O)c3ccc(C)cc3n(CC(=O)O)c12 [Compound 279],20 to 100 µM,20 to 100 µM,D (“D” > 7° C.),> 50%
CCOC(=O)Cn1c2cc(C)ccc2c(=O)c2ccc(Cl)c(OCC)c21 [Compound 321],> 300 µM,> 300 µM,B (“B” = 0-2° C.),5 to 25%
O=C(O)Cn1c2ccccc2c(=O)c2ccc(Cl)c(-c3ccccc3)c21 [Compound 256],20 to 100 µM,100 to 300 µM,"C (“C” = 2-7° C,)",
O=C(O)Cn1c2cc(Cl)ccc2c(=O)c2ccc(Nc3ccccc3)cc21 [Compound 301],< 20 µM,20 to 100 µM,"C (“C” = 2-7° C,)",< 5%
COc1ccc2c(=O)c3ccccc3n(CC(=O)O)c2c1OC [Compound 265],,> 300 µM,B (“B” = 0-2° C.),< 5%
COc1c(Cl)ccc2c(=O)c3ccc(NC(C)C)cc3n(CC(=O)O)c12 [Compound 300],,20 to 100 µM,"C (“C” = 2-7° C,)",> 50%
CC(C)Nc1ccc2c(=O)c3ccc(Cl)c(-c4ccccc4)c3n(CC(=O)O)c2c1 [Compound 336],,< 20 µM,D (“D” > 7° C.),> 50%
COc1c(Cl)ccc2c(=O)c3cc(N(C)C)c(C(C)C)cc3n(CC(=O)O)c12 [Compound 319],> 300 µM,> 300 µM,A (“A” < 0° C.),< 5%
C[C@@H](Oc1c(Cl)ccc2c(=O)c3ccccc3n(CC(=O)O)c12)c1ccccc1 [Compound 296],> 300 µM,> 300 µM,A (“A” < 0° C.),< 5%
Cc1c(C(C)C)ccc2c(=O)c3ccc(Cl)c(Cl)c3n(CC(=O)O)c12 [Compound 193],> 300 µM,20 to 100 µM,A (“A” < 0° C.),
O=C(O)Cn1c2cc(C3=CCC(O)CC3)ccc2c(=O)c2ccc(Cl)c(Cl)c21 (stereo not drawn) [Compound 213],20 to 100 µM,100 to 300 µM,"C (“C” = 2-7° C,)",
O=C(O)Cn1c2ccccc2c(=O)c2ccc(Cl)c(Oc3nccc4ccccc34)c21 [Compound 243],100 to 300 µM,20 to 100 µM,A (“A” < 0° C.),< 5%
C#CCOc1c(Cl)ccc2c(=O)c3ccccc3n(CC(=O)O)c12 [Compound 272],> 300 µM,100 to 300 µM,B (“B” = 0-2° C.),< 5%
Cc1ccc2c(=O)c3ccc(Cl)c(OCc4ccccc4)c3n(CC(=O)O)c2c1 [Compound 285],20 to 100 µM,20 to 100 µM,D (“D” > 7° C.),25 to 50%
CCOc1c(Cl)ccc2c(=O)c3ccc(C)cc3n(CC(=O)O)c12 [Compound 282],,20 to 100 µM,D (“D” > 7° C.),> 50%
[N-]=[N+]=NCc1c(Cl)ccc2c(=O)c3ccccc3n(CC(=O)O)c12 [Compound 305],> 300 µM,> 300 µM,B (“B” = 0-2° C.),< 5%
O=C(O)Cn1c2ccccc2c(=O)c2ccc(Cl)c(Oc3ccccc3)c21 [Compound 287],,> 300 µM,B (“B” = 0-2° C.),< 5%
COc1c(Cl)ccc2c(=O)c3ccc(C)cc3n(CC(=O)NS(=O)(=O)C3CC3)c12 [Compound 348],,100 to 300 µM,"C (“C” = 2-7° C,)",> 50%
O=C(O)Cn1c2cc(-c3ccco3)ccc2c(=O)c2ccc(Cl)c(Cl)c21 [Compound 186],,20 to 100 µM,"C (“C” = 2-7° C,)",25 to 50%
COc1c(Cl)ccc2c(=O)c3ccc(C)cc3n(CC(=O)O)c12 [Compound 280],,20 to 100 µM,D (“D” > 7° C.),> 50%

# The next lines start with the values.
IC50 (mSTING),IC50 (hSTING-WT),WT_DSF_hSWAT Tm Shift (° C.) (hSTING-R232),Emax (STING protein),SMILES
> 300 µM,> 300 µM,B (“B” = 0-2° C.),< 5%,COc1cc(Cl)c(OC)c2c1c(=O)c1ccccc1n2CC(=O)O [Compound 313]
> 300 µM,100 to 300 µM,A (“A” < 0° C.),< 5%,C[C@H](Oc1c(Cl)ccc2c(=O)c3ccccc3n(CC(=O)O)c12)c1ccccc1 [Compound 295]
< 20 µM,< 20 µM,D (“D” > 7° C.),> 50%,CSc1c(Cl)ccc2c(=O)c3ccc(-c4ccc(O)cc4)cc3n(CC(=O)O)c12 [Compound 271]
100 to 300 µM,20 to 100 µM,"C (“C” = 2-7° C,)",> 50%,COc1c(Cl)ccc2c(=O)c3cc(Br)c(C(C)C)cc3n(CC(=O)O)c12 [Compound 268]
< 20 µM,< 20 µM,D (“D” > 7° C.),> 50%,CSc1c(Cl)ccc2c(=O)c3ccc(C(C)C)cc3n(CC(=O)O)c12 [Compound 281]
20 to 100 µM,20 to 100 µM,"C (“C” = 2-7° C,)",25 to 50%,O=C(O)Cn1c2cc(-c3ccoc3)ccc2c(=O)c2ccc(Cl)c(Cl)c21 [Compound 183]
,100 to 300 µM,"C (“C” = 2-7° C,)",> 50%,COc1c(Cl)ccc2c(=O)c3ccc(C)cc3n(CC(=O)NS(C)(=O)=O)c12 [Compound 347]
,20 to 100 µM,D (“D” > 7° C.),> 50%,COc1c(Cl)ccc2c(=O)c3ccc(C4=CCOCC4)cc3n(CC(=O)O)c12 [Compound 254]
20 to 100 µM,< 20 µM,D (“D” > 7° C.),25 to 50%,CC(C)Sc1c(Cl)ccc2c(=O)c3ccc(C(C)(C)C)cc3n(CC(=O)O)c12 [Compound 290]
> 300 µM,100 to 300 µM,A (“A” < 0° C.),< 5%,COc1c(Cl)ccc2c(=O)c3cc(N)c(C(C)C)cc3n(CC(=O)O)c12 [Compound 320]
< 20 µM,< 20 µM,D (“D” > 7° C.),> 50%,CSc1c(Cl)ccc2c(=O)c3ccc(Nc4ncccn4)cc3n(CC(=O)O)c12 [Compound 276]
,20 to 100 µM,"C (“C” = 2-7° C,)",> 50%,C[C@@H]1CCCN1c1ccc2c(=O)c3ccc(Cl)c(Br)c3n(CC(=O)O)c2c1 [Compound 203]
,< 20 µM,D (“D” > 7° C.),> 50%,COc1c(Cl)ccc2c(=O)c3ccc(-c4ccoc4)cc3n(CC(=O)O)c12 [Compound 277]
> 300 µM,> 300 µM,B (“B” = 0-2° C.),< 5%,COc1c(Cl)c(O)cc2c(=O)c3ccccc3n(CC(=O)O)c12 [Compound 315]
,> 300 µM,"C (“C” = 2-7° C,)",> 50%,CCS(=O)(=O)NC(=O)Cn1c2cc(C)ccc2c(=O)c2ccc(Cl)c(OC)c21 [Compound 349]
> 300 µM,> 300 µM,B (“B” = 0-2° C.),5 to 25%,CCOc1c(Cl)ccc2c(=O)c3ccc(C)cc3n(CC(=O)OC)c12 [Compound 322]
100 to 300 µM,100 to 300 µM,"C (“C” = 2-7° C,)",,O=C(O)Cn1c2cc(N3CCCCC3)ccc2c(=O)c2ccc(Cl)c(Br)c21 [Compound 198]
,> 300 µM,"C (“C” = 2-7° C,)",< 5%,COc1c(Cl)ccc2c(=O)c3ccc(C4CCCNC4)cc3n(CC(=O)O)c12 (stereo not drawn) [Compound 227]
,100 to 300 µM,"C (“C” = 2-7° C,)",< 5%,CC(C)Sc1ccc2c(=O)c3ccc(Cl)c(Cl)c3n(CC(=O)O)c2c1 [Compound 149]
,< 20 µM,D (“D” > 7° C.),> 50%,COc1c(Cl)ccc2c(=O)c3ccc(-c4cccc(C)c4)cc3n(CC(=O)O)c12 [Compound 238]
